According to patent US7504420B2, “Compounds which inhibit beta-secretase activity and methods of use” (CoMentis, Inc., priority 2005, dated 2009):
Like-named read-outs stand apart in the source and are kept apart here.

Columns and labels:
cathepsin D = cathepsin D (Homo sapiens, UniProt P07339); test: Inhibition of cathepsin D catalytic activity (Ki); format: biochemical; settings: pH 4.0, 37° C., read-out: CDK
Procedure: A substrate peptide NH3-ELDLAVEFWHDR-CO2 (SEQ ID NO.:1) (used for inhibition assay of memapsin 2, memapsin 1, and cathepsin D) was dissolved at 2 mg/ml in DMSO and diluted 1:100 in 0.1 M sodium acetate, pH 4.0 just prior to assay. Inhibitor dissolved in DMSO was diluted into 0.1 M sodium acetate, pH 4.0 (1:100 dilution). A […] aliquot of the inhibitor solution in pH 4 buffer was combined with […] of 0.1 M sodium acetate containing 100-200 nM of memapsin 1, memapsin 2, or cathepsin D. Following a pre-incubation at 37° C., the proteolytic assay was initated by addition of […] of the substrate diluted into pH 4 buffer, and incubation continued at 37° C. Aliquots were removed at time intervals, and combined with an equal volume of MALDI-TOF matrix (α-hydroxycinnamic acid in acetone, 20 mg/ml) and immediately spotted in duplicate onto a stainless-steel MALDI sample plate. MALDI-TOF mass spectrometry was performed on a PE Biosystems Voyager DE instrument at the Molecular Biology Resource Center on campus. The instrument was operated at 25,000 accelerating volts in positive mode with a 150 ns delay. Ions with a mass-to-charge ratio (m/z) were detected in the range of 650-2000 atomic mass units. Data were analyzed by the Voyager Data Explorer module to obtain ion intensity data for mass species of substrates and corresponding products in a given mixture. Relative product formation was calculated as the ratio of signal intensity of the product to the sum of signal intensities of both product and the corresponding substrate. Relative product formed per unit time was obtained from non-linear regression analysis of the data representing the initial 15% formation of product using the model: 1−e^−kT, where k was the relative hydrolytic rate constant and T was time in seconds. Alternatively, relative hydrolytic rates were determined using a fluorogenic cleavage assay (Ermolieff, J. et al., Biochemistry, 39: 12450-12456 (2000)). Initial rates from either method were expressed relative to uninhibited controls and the inhibition constant Ki was determined by a non-linear fit to a tight-binding model of competitive inhibition (Bieth, J., Bayer-Symposium V: Proteinase Inhibitors, pp 463-469, Spinger-Varlag, Berlin (1994)). Results are shown in Table 1 above (M2K, CDK, and M1K columns represent, respectively, the K1 values obtained for memapsin 2, cathepsin D and memapsin 1).

memapsin 2 = memapsin 2 (Homo sapiens, UniProt P56817); test: Inhibition of memapsin 2 catalytic activity (Ki); format: biochemical; settings: memapsin 2, pH 4, 37° C.; read-out: M2K
Chain of memapsin 2 (P56817 46-501): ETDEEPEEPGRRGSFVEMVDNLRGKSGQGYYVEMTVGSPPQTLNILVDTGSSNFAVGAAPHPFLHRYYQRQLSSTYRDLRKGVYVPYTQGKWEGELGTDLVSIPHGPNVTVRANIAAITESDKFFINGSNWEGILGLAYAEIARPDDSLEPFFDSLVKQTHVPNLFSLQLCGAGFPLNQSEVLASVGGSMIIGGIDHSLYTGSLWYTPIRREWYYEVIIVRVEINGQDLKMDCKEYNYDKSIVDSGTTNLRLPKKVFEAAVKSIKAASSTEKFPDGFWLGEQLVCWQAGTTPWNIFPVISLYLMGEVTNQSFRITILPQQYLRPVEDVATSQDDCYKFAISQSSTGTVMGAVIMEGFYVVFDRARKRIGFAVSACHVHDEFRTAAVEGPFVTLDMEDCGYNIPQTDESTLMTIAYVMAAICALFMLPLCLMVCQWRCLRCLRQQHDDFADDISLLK
Outline: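 Run at 37 °C and pH 4: compound and enzyme pre-incubated 20 min before FS-2 fluorogenic substrate started hydrolysis,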

[1] = system: Aβ production in Chinese hamster ovary cells that over-express human APP695 with the London and Swedish mutations; test: Cellular Aβ IC50 determination (Aβ40 sandwich ELISA); settings: 24 h
[2] = Cricetulus griseus, CHO, read-out: Cell, Aβ40, CHO cells over-expressing human APP695 (London and Swedish mutations), 24 h

Chain of cathepsin D (P07339 65-412, species assumed): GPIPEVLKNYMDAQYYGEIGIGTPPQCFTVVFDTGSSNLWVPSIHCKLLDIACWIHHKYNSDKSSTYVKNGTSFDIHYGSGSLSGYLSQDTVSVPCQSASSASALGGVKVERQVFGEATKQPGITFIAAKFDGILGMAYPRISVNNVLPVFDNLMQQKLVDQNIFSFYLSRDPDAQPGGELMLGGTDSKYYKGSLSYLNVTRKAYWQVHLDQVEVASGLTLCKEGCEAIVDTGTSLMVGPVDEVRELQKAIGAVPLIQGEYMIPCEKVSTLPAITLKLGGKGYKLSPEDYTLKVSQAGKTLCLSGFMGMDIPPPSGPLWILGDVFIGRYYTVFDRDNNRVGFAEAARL

Compound | Ki (cathepsin D) [nM] | Ki (memapsin 2) [nM] | IC50 [1, 2] [nM] | IC50 ([1]; read-out: Cell, Aβ40, CHO cells over-expressing human APP695 (London and Swedish mutations)) [nM]
COc1cccc(CNCC(O)C(Cc2ccccc2)NC(=O)c2cccc(C(=O)N(C)Cc3nc(C)cs3)c2F)c1 (centres unmarked) [2-fluoro-N1-(3-hydroxy-4-(3-methoxybenzylamino)-1-phenylbutan-2-yl)-N3-methyl-N3-((4-methylthiazol-2-yl)methyl)isophthalamide] | < 300 | > 501 | 1000 to 5000 | –
COc1cccc(CNCC(O)C(Cc2ccccc2)NC(=O)c2cccc(C(=O)N(Cc3nc(C)cs3)N(C)C)c2)c1 (centres unmarked) [3-(2,2-dimethyl-1-((4-methylthiazol-2-yl)methyl)hydrazinecarbonyl)-N-(3-hydroxy-4-(3-methoxybenzylamino)-1-phenylbutan-2-yl)benzamide] | > 501 | > 501 | > 5000 | –
COc1cccc(CNCC(O)C(Cc2ccccc2)NC(=O)c2cc(C(=O)NC(C)C3CCCCC3)cc(N(C)S(C)(=O)=O)c2)c1 (centres unmarked) [N1-(1-cyclohexylethyl)-N3-(3-hydroxy-4-(3-methoxybenzylamino)-1-phenylbutan-2-yl)-5-(N-methylmethylsulfonamido)isophthalamide] | < 300 | < 300 | < 1000 | –
CC(NC(=O)c1cc(C(=O)NC(Cc2ccccc2)C(O)CNCCN2CCCC2)cc(N(C)S(C)(=O)=O)c1)c1ccccc1 (centres unmarked) [N1-(3-hydroxy-1-phenyl-4-(2-(pyrrolidin-1-yl)ethylamino)butan-2-yl)-5-(N-methylmethylsulfonamido)-N3-(1-phenylethyl)isophthalamide] | > 501 | > 501 | > 5000 | –
Cc1csc(CN(C)C(=O)c2cccc(C(=O)NC(Cc3ccccc3)C(O)CNCCN3CCCC3)c2)n1 (centres unmarked) [N1-(3-hydroxy-1-phenyl-4-(2-(pyrrolidin-1-yl)ethylamino)butan-2-yl)-N3-methyl-N3-((4-methylthiazol-2-yl)methyl)isophthalamide] | > 501 | > 501 | > 5000 | –
CC(NC(=O)c1cc(C(=O)NC(Cc2ccccc2)C(O)CNCc2cccc(C(F)(F)F)c2)cc(N(C)S(C)(=O)=O)c1)c1ccccc1 (centres unmarked) [N1-(3-hydroxy-1-phenyl-4-(3-(trifluoromethyl)benzylamino)butan-2-yl)-5-(N-methylmethylsulfonamido)-N3-(1-phenylethyl)isophthalamide] | < 300 | < 300 | < 1000 | –
CC(NC(=O)c1cc(C(=O)NC(Cc2ccccc2)C(O)CNCC2CCCNC2)cc(N(C)S(C)(=O)=O)c1)c1ccccc1 (centres unmarked) [N1-(3-hydroxy-1-phenyl-4-(piperidin-3-ylmethylamino)butan-2-yl)-5-(N-methylmethylsulfonamido)-N3-(1-phenylethyl)isophthalamide] | > 501 | > 501 | > 5000 | –
CC(NC(=O)c1cc(C(=O)NC(Cc2ccccc2)C(O)CNCC2CCNCC2)cc(N(C)S(C)(=O)=O)c1)c1ccccc1 (centres unmarked) [N1-(3-hydroxy-1-phenyl-4-(piperidin-4-ylmethylamino)butan-2-yl)-5-(N-methylmethylsulfonamido)-N3-(1-phenylethyl)isophthalamide] | > 501 | > 501 | > 5000 | –
COc1cccc(C(C)NCC(O)C(Cc2ccccc2)NC(=O)c2cc(C(=O)NC(C)c3cccc(OC)c3)cc(N(C)S(C)(=O)=O)c2)c1 (centres unmarked) [N1-(3-hydroxy-4-(1-(3-methoxyphenyl)ethylamino)-1-phenylbutan-2-yl)-N3-(1-(3-methoxyphenyl)ethyl)-5-(N-methylmethylsulfonamido)isophthalamide] | < 300 | < 300 | < 1000 | –
COc1ccccc1CCNCC(O)C(Cc1ccccc1)NC(=O)c1cc(C(=O)NC(C)c2ccccc2)cc(N(C)S(C)(=O)=O)c1 (centres unmarked) [N1-(3-hydroxy-4-(2-methoxyphenethylamino)-1-phenylbutan-2-yl)-5-(N-methylmethylsulfonamido)-N3-(1-phenylethyl)isophthalamide] | < 300 | < 300 | 1000 to 5000 | –
CC(NC(=O)c1cc(C(=O)NC(Cc2ccccc2)C(O)CNCCN2CCOCC2)cc(N(C)S(C)(=O)=O)c1)c1ccccc1 (centres unmarked) [N1-(3-hydroxy-4-(2-morpholinoethylamino)-1-phenylbutan-2-yl)-5-(N-methylmethylsulfonamido)-N3-(1-phenylethyl)isophthalamide] | > 501 | 301 to 500 | 1000 to 5000 | –
CNc1cccc(CNCC(O)C(Cc2ccccc2)NC(=O)c2cc(C(=O)NC(C)c3ccccc3)cc(N(C)S(C)(=O)=O)c2)c1 (centres unmarked) [N1-(3-hydroxy-4-(3-(methylamino)benzylamino)-1-phenylbutan-2-yl)-5-(N-methylmethylsulfonamido)-N3-(1-phenylethyl)isophthalamide] | < 300 | – | – | –
COc1cccc(CCNCC(O)C(Cc2ccccc2)NC(=O)c2cc(C(=O)NC(C)c3ccccc3)cc(N(C)S(C)(=O)=O)c2)c1 (centres unmarked) [N1-(3-hydroxy-4-(3-methoxyphenethylamino)-1-phenylbutan-2-yl)-5-(N-methylmethylsulfonamido)-N3-(1-phenylethyl)isophthalamide] | < 300 | < 300 | – | –

Next, values leading:

Ki (cathepsin D) [nM] | Ki (memapsin 2) [nM] | IC50 [1, 2] [nM] | IC50 ([1]; read-out: Cell, Aβ40, CHO cells over-expressing human APP695 (London and Swedish mutations)) [nM] | Compound
< 300 | > 501 | – | – | 4- or 6-fluoro-N3-(3-hydroxy-4-(3-methoxybenzylamino)-1-phenylbutan-2-yl)-N1-(1-phenylethyl)isophthalamide
< 300 | > 501 | 1000 to 5000 | – | COc1cccc(CNCC(O)C(Cc2ccccc2)NC(=O)c2cc(C(=O)NC(C)c3ccccc3)c(F)cc2F)c1 (centres unmarked) [4,6-difluoro-N1-(3-hydroxy-4-(3-methoxybenzylamino)-1-phenylbutan-2-yl)-N3-(1-phenylethyl)isophthalamide]
< 300 | < 300 | < 1000 | – | CC(NCC(O)C(Cc1ccccc1)NC(=O)c1cc(C(=O)NC(C)c2ccccc2)cc(N(C)S(C)(=O)=O)c1)c1cccnc1 (centres unmarked) [N1-(3-hydroxy-1-phenyl-4-(1-(pyridin-3-yl)ethylamino)butan-2-yl)-5-(N-methylmethylsulfonamido)-N3-(1-phenylethyl)isophthalamide]
> 501 | > 501 | > 5000 | – | CC(NC(=O)c1cc(C(=O)NC(Cc2ccccc2)C(O)CNCCN2CCCCC2)cc(N(C)S(C)(=O)=O)c1)c1ccccc1 (centres unmarked) [N1-(3-hydroxy-1-phenyl-4-(2-(piperidin-1-yl)ethylamino)butan-2-yl)-5-(N-methylmethylsulfonamido)-N3-(1-phenylethyl)isophthalamide]
> 501 | < 300 | < 1000 | – | CC(NC(=O)c1cc(C(=O)NC(Cc2ccccc2)C(O)CNCc2cnccn2)cc(N(C)S(C)(=O)=O)c1)c1ccccc1 (centres unmarked) [N1-(3-hydroxy-1-phenyl-4-(pyrazin-2-ylmethylamino)butan-2-yl)-5-(N-methylmethylsulfonamido)-N3-(1-phenylethyl)isophthalamide]
< 300 | < 300 | < 1000 | – | CC(NC(=O)c1cc(C(=O)NC(Cc2ccccc2)C(O)CNCc2cnc3ccccc3c2)cc(N(C)S(C)(=O)=O)c1)c1ccccc1 (centres unmarked) [N1-(3-hydroxy-1-phenyl-4-(quinolin-3-ylmethylamino)butan-2-yl)-5-(N-methylmethylsulfonamido)-N3-(1-phenylethyl)isophthalamide]
< 300 | < 300 | – | – | Cc1ccc(CNCC(O)C(Cc2ccccc2)NC(=O)c2cc(C(=O)NC(C)c3ccccc3)cc(N(C)S(C)(=O)=O)c2)o1 (centres unmarked) [N1-(3-hydroxy-4-((5-methylfuran-2-yl)methylamino)-1-phenylbutan-2-yl)-5-(N-methylmethylsulfonamido)-N3-(1-phenylethyl)isophthalamide]
< 300 | < 300 | – | – | CC(NCC(O)C(Cc1ccccc1)NC(=O)c1cc(C(=O)NC(C)c2ccccc2)cc(N(C)S(C)(=O)=O)c1)c1cccc(F)c1 (centres unmarked) [N1-(4-(1-(3-fluorophenyl)ethylamino)-3-hydroxy-1-phenylbutan-2-yl)-5-(N-methylmethylsulfonamido)-N3-(1-phenylethyl)isophthalamide]
< 300 | – | – | 1000 to 5000 | N3-(3-hydroxy-4-(3-methoxybenzylamino)-1-phenylbutan-2-yl)-4- or 6-methyl-N1-(1-phenylethyl)isophthalamide
